{"source": "patent US20260091015A1", "about": "“TREATING IRON DEFICIENCY WITH FERRIC CARBOXYMALTOSE” (PHARMACOSMOS HOLDING A/S, priority 2018, published 2026)", "key": {"[1]": {"tested_on": "vitamin D (25, 1,25, 24,25)", "assay": "Vitamin D (25, 1,25, 24,25) levels by LC-MS/MS, trials IDA-04/IDA-05", "assay_type": "in vivo, human", "conditions": "IDA-04 and IDA-05 combined", "experimental": "The term “serum vitamin D” as used herein refers to the level of vitamin Ds, in particular 25-hydroxyvitamin D, 1,25-dihydroxyvitamin D, and 24,25-dihydroxyvitamin D, in blood serum as measured by Liquid Chromatography and Tandem Mass Spectrometry (LC-MS/MS).\nThe trial was a randomized, open-label, comparative trial. […]\n(§1) The following safety laboratory assessments were analysed: • S-phosphate: inorganic phosphorous forms an ammonium phosphomolybdate complex having the formula (NH4)3[PO4](MoO3)12 with ammonium molybdate in the presence of sulfuric acid. The complex was determined photometrically in the ultraviolet region (340 nm) of the spectrum using the Roche Modular and Cobas Analyzer. • iFGF23 and cFGF23: the human intact FGF23 was measured by the 2nd generation Elisa kit manufactured by Immonotropics, Inc, San Clemente, CA. […] The human C-terminal FGF23 was measured by the Elisa kit manufactured by Immonotropics, Inc, San Clemente, CA. […] After evaporation under nitrogen, the residue was reconstituted and analyzed using Liquid Chromatography (LC) with Tandem Mass Spectrometric detection (MS/MS). […]"}, "human C-terminal FGF23": {"tested_on": "human C-terminal FGF23", "assay": "C-terminal FGF23 (cFGF23) over time, two-site ELISA, trials IDA-04/IDA-05", "assay_type": "in vivo", "experimental": "The trial was a randomized, open-label, comparative trial. Subjects with Iron Deficiency Anaemia (IDA) were randomized 1:1 to one treatment course of one of the following treatments: • Group A: iron isomaltoside 1000 (Monofer®, Pharmacosmos, Holbok, Denmark, termed iron isomaltoside in the following), 1000 mg at baseline • Group B: ferric carboxymaltose (Ferinject®/Injectafer®, Vifor Inc, Switzerland), 750 mg at baseline and day 7, cumulative dose: 1500 mg […]\nas §1"}, "human intact FGF23": {"tested_on": "human intact FGF23", "assay": "Intact FGF23 (iFGF23) over time, two-site ELISA, trials IDA-04/IDA-05", "assay_type": "in vivo", "experimental": "The trial was a randomized, open-label, comparative trial. Subjects with Iron Deficiency Anaemia (IDA) were randomized 1:1 to one treatment course of one of the following treatments: • Group A: iron isomaltoside 1000 (Monofer®, Pharmacosmos, Holbok, Denmark, termed iron isomaltoside in the following), 1000 mg at baseline • Group B: ferric carboxymaltose (Ferinject®/Injectafer®, Vifor Inc, Switzerland), 750 mg at baseline and day 7, cumulative dose: 1500 mg\nThe secondary safety endpoints were the following: • Incidence of s-phosphate below 1.0 mg/dL at any time from baseline to day 35 • Time with hypophosphatemia (i.e. time with s-phosphate <2.0 mg/dL) from baseline to day 35 • Proportion of subjects with hypophosphatemia at day 35 • Absolute [Δ] and relative [%] changes in s-phosphate from baseline to 1, 7, 8, 14, 21, and 35 • Fractional phosphate urinary excretion at 1, 7, 8, 14, 21, and 35 • Change in iFGF23, cFGF23, vitamin D (25, 1,25, 24,25), PTH, and ionized calcium from baseline to 1, 7, 8, 14, 21, and 35 • Type and incidence of AEs • Serious or severe hypersensitivity reaction starting on or after the first dose of randomized treatment (i.e. treatment emergent). The hypersensitivity terms were defined as standardised Medical Dictionary for Regulatory Activities query (SMQ) terms. […]\nThe following safety laboratory assessments were analysed: • S-phosphate: inorganic phosphorous forms an ammonium phosphomolybdate complex having the formula (NH4)3[PO4](MoO3)12 with ammonium molybdate in the presence of sulfuric acid. The complex was determined photometrically in the ultraviolet region (340 nm) of the spectrum using the Roche Modular and Cobas Analyzer. • iFGF23 and cFGF23: the human intact FGF23 was measured by the 2nd generation Elisa kit manufactured by Immonotropics, Inc, San Clemente, CA. […] The human C-terminal FGF23 was measured by the Elisa kit manufactured by Immonotropics, Inc, San Clemente, CA. […] After evaporation under nitrogen, the residue was reconstituted and analyzed using Liquid Chromatography (LC) with Tandem Mass Spectrometric detection (MS/MS). […] A direct relationship exists between the amount of PTH present in the patient sample and the amount of relative light units (RLUs) detected by the system. • Ionized calcium: Measured by the IL GEM Premier 3500 PAK cartridge. […]"}}, "data": [{"substance": "ferric carboxymaltose [FCM]", "values": [{"measurement": "1,25-dihydroxyvitamin D", "setting": "[1]", "value": "decrease"}, {"measurement": "24,25-dihydroxyvitamin D", "setting": "[1]", "value": "increase"}, {"measurement": "cFGF23 on the first administration", "setting": "human C-terminal FGF23; initially high due to underlying iron deficiency anemia", "value": "dropped sharply"}, {"measurement": "cFGF23 on the second administration", "setting": "human C-terminal FGF23; second administration (day 7)", "value": "increased"}, {"measurement": "iFGF23 after administration", "setting": "human intact FGF23; first administration (750 mg), then gradually declined over days", "value": "increased sharply"}, {"measurement": "increase in iFGF23 after second dose relative to first dose", "setting": "human intact FGF23; repeated dosing one week apart", "value": "2-3 fold"}, {"measurement": "iFGF23 on the second administration, relative to the initial level", "setting": "human intact FGF23; second administration (750 mg, day 7)", "value": "several fold higher"}]}]}
